# Test results: patent US20230167073A1 (Teijin Pharma Limited, priority 2020, published 2023)
# Biological target: T1, Human TRPC6 (Homo sapiens, UniProt Q9Y210)
# T1 construct: expressed in transfected cells
# T1 sequence (Q9Y210 1-931): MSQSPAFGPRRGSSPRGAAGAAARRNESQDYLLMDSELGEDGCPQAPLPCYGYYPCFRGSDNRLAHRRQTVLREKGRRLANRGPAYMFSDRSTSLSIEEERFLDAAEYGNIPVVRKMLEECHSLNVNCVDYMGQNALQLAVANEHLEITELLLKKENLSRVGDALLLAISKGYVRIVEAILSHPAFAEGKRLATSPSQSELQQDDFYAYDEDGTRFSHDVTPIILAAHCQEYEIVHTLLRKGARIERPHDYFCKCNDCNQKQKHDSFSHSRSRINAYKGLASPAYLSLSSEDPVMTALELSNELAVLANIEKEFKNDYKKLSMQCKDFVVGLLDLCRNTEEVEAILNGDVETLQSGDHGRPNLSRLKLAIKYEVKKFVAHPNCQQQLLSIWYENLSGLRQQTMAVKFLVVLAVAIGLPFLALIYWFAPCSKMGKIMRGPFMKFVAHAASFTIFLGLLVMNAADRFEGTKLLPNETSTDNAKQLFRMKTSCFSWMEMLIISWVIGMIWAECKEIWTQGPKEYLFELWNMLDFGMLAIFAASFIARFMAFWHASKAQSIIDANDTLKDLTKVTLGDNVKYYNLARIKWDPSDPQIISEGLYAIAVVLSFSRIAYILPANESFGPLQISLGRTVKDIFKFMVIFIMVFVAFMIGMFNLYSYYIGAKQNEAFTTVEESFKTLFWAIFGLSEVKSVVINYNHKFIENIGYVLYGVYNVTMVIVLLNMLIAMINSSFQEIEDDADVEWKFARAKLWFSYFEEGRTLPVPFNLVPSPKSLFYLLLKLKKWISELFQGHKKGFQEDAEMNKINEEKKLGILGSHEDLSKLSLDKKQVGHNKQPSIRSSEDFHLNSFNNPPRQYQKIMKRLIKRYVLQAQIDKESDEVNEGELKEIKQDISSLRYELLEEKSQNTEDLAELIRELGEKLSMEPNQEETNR
# Assay: Evaluation of TRPC6 channel inhibitory activity (1), FLIPR Calcium 5 Assay Kit, OAG stimulation (Compound Nos. 1-1293)
# Type: cell-based
# Settings: Human TRPC6 stably-expressing cells, OAG 30 μM, FLIPR Calcium 5 Assay Kit; read-out: Inhibitory activity (pIC50 class) (converted)
# Procedure: Evaluation of TRPC6 Channel Inhibitory Activity (1) (Compound Nos. 1-1293)
# In order to investigate TRPC6 channel inhibitory activity of the compounds, evaluation was conducted using FLIPR® Calcium 5 Assay Kit (Molecular Devices) in accordance with the following procedure. Human TRPC6 stably-expressing cells were seeded in a 384-well black clear bottom plate at a density of 5×10^3/well and cultured in an incubator at 37° C. 5% CO2 for 24 hours. Thereafter, 25 μL of a Non Wash Dye Solution, prepared using Component A, 20 mM HEPES-HBSS and 250 mM probenecid, all of which are included in the kit, was added to each well, and the plate was incubated for 30 minutes. A volume of 12.5 μL of a compound solution was added into each well while the fluorescence was measured with FLIPR tetra. After 20 minutes, 12.5 μL of a 1-oleoyl-2-acetyl glycerol (OAG) solution was added at a final concentration of 30 μM. The difference between the minimum fluorescence intensity before the addition of the compound and the maximum fluorescence intensity after the addition of OAG was defined as a signal. An inhibition rate was calculated, assuming the average signal of wells without the compound as the inhibition rate of 0% and the average signal of wells without the compound and OAG as the inhibition rate of 100%. The calculated inhibition rate was analyzed by a four-parameter logistic regression to quantify the inhibition rate in the logarithm of the inverse of the effective concentration which gives a 50% inhibition rate (pIC50). The intensity was expressed by the following symbols (+, ++, +++).
row,IC50 [nM],Structure (SMILES)
1,> 1000,"Cc1nc(Oc2cc(C#N)ccc2-c2ccc(C3CN(CCC(=O)O)C3)cc2)cc(N2CCOCC2)n1 [Compound 55, 3-[3-[4-[4-cyano-2-(2-methyl-6-morpholin-4-ylpyrimidin-4-yl)oxyphenyl]phenyl]azetidin-1-yl]propanoic acid]"
2,> 1000,"Cc1nc(Oc2cc(C#N)ccc2-c2ccc(CCNCCC(=O)O)cc2)cc(N2CCOCC2)n1 [Compound 56, 3-[2-[4-[4-cyano-2-(2-methyl-6-morpholin-4-ylpyrimidin-4-yl)oxyphenyl]phenyl]ethylamino] propanoic acid]"
3,> 1000,"COCCCNCCc1ccc(-c2ccc(C#N)cc2Oc2cc(N3CCOCC3)nc(C)n2)cc1 [Compound 57, 4-[4-[2-(3-methoxypropylamino)ethyl]phenyl]-3-(2-methyl-6-morpholin-4-ylpyrimidin-4-yl)oxybenzonitrile]"
4,10 to 1000,"Cc1nc(Oc2cc(C#N)ccc2-c2ccc(CCNCCCO)cc2)cc(N2CCOCC2)n1 [Compound 58, 4-[4-[2-(3-Hydroxypropylamino)ethyl]phenyl]-3-(2-methyl-6-morpholin-4-ylpyrimidin-4-yl)oxybenzonitrile]"
5,10 to 1000,"Cc1nc(Oc2cc(C#N)ccc2-c2ccc(C(CN)c3ccccc3)cc2)cc(N2CCOCC2)n1 (centres unmarked) [Compound 59, 4-[4-(2-Amino-1-phenylethyl)phenyl]-3-(2-methyl-6-morpholin-4-ylpyrimidin-4-yl)oxybenzonitrile]"
6,10 to 1000,"Cc1nc(Oc2cc(C#N)ccc2-c2ccc(C(CN)c3ccc(F)cc3)cc2)cc(N2CCOCC2)n1 (centres unmarked) [Compound 60, 4-[4-[2-amino-1-(4-fluorophenyl)ethyl]phenyl]-3-(2-methyl-6-morpholin-4-ylpyrimidin-4-yl)oxybenzonitrile]"
7,> 1000,"Cc1nc(Oc2cc(C#N)ccc2-c2ccc(C(CN)c3cccc(F)c3)cc2)cc(N2CCOCC2)n1 (centres unmarked) [Compound 61, 4-[4-[2-amino-1-(3-fluorophenyl)ethyl]phenyl]-3-(2-methyl-6-morpholin-4-ylpyrimidin-4-yl)oxybenzonitrile]"
8,< 10,"Cc1nc(Oc2cc(C#N)ccc2-c2ccc(C(C)CN)cc2)cc(N2CCOCC2)n1 (centres unmarked) [Compound 62, 4-[4-(1-aminopropan-2-yl)phenyl]-3-(2-methyl-6-morpholin-4-ylpyrimidin-4-yl)oxybenzonitrile]"
9,> 1000,"Cc1nc(Oc2cc(C#N)ccc2-c2ccc(C(CN)OCC(=O)O)cc2)cc(N2CCOCC2)n1 (centres unmarked) [Compound 63, 2-[2-amino-1-[4-[4-cyano-2-(2-methyl-6-morpholin-4-ylpyrimidin-4-yl)oxyphenyl]phenyl]ethoxy] acetic acid]"
10,> 1000,"COCCOC(CN)c1ccc(-c2ccc(C#N)cc2Oc2cc(N3CCOCC3)nc(C)n2)cc1 (centres unmarked) [Compound 64, 4-[4-[2-amino-1-(2-methoxyethoxy)ethyl]phenyl]-3-(2-methyl-6-morpholin-4-ylpyrimidin-4-yl)oxybenzonitrile]"
11,< 10,"N#Cc1ccc(-c2ccc(CCN)cc2)c(Oc2cnnc(N3CCCC3)c2)c1 [Compound 65, 4-[4-(2-aminoethyl)phenyl]-3-(6-pyrrolidin-1-ylpyridazin-4-yl)oxybenzonitrile]"
12,< 10,"N#Cc1ccc(-c2ccc(CCN)cc2)c(Oc2cnnc(N3CCCCC3)c2)c1 [Compound 66, 4-[4-(2-aminoethyl)phenyl]-3-(6-piperidin-1-ylpyridazin-4-yl)oxybenzonitrile]"
13,10 to 1000,"Cc1nc(Oc2cc(C#N)ccc2-c2ccc(C3(CN)CC3)cc2)cc(N2CCOCC2)n1 [Compound 67, 4-[4-[1-(aminomethyl)cyclopropyl]phenyl]-3-(2-methyl-6-morpholin-4-ylpyrimidin-4-yl)oxybenzonitrile]"
14,10 to 1000,"Cc1nc(Oc2cc(C#N)ccc2-c2ccc(C(C)(O)CN)cc2)cc(N2CCOCC2)n1 (centres unmarked) [Compound 68, 4-[4-(1-amino-2-hydroxypropan-2-yl)phenyl]-3-(2-methyl-6-morpholin-4-ylpyrimidin-4-yl)oxybenzonitrile]"
15,< 10,"N#Cc1ccc(-c2ccc(CCN)cc2)c(Oc2cnnc(-c3ccccc3)c2)c1 [Compound 69, 4-[4-(2-aminoethyl)phenyl]-3-(6-phenylpyridazin-4-yl)oxybenzonitrile]"
16,< 10,"N#Cc1ccc(-c2ccc(CCN)cc2)c(Oc2cnnc(-c3ccccc3O)c2)c1 [Compound 70, 4-[4-(2-aminoethyl)phenyl]-3-[6-(2-hydroxyphenyl)pyridazin-4-yl]oxybenzonitrile]"
17,10 to 1000,"Cc1nc(Oc2cc(C#N)ccc2-c2nc(C)c(C(O)CN)s2)cc(-c2ccccc2)n1 (centres unmarked) [Compound 71, 4-[5-(2-amino-1-hydroxyethyl)-4-methyl-1,3-thiazol-2-yl]-3-(2-methyl-6-phenylpyrimidin-4-yl)oxybenzonitrile]"
18,10 to 1000,"Cc1nc(Oc2cc(C#N)ccc2-c2ccc(C(CN)c3ccsc3)cc2)cc(N2CCOCC2)n1 (centres unmarked) [Compound 72, 4-[4-(2-amino-1-thiophen-3-ylethyl)phenyl]-3-(2-methyl-6-morpholin-4-ylpyrimidin-4-yl)oxybenzonitrile]"
19,10 to 1000,"Cc1nc(Oc2cc(C#N)ccc2-c2ccc(C(CN)c3ccoc3)cc2)cc(N2CCOCC2)n1 (centres unmarked) [Compound 73, 4-[4-[2-amino-1-(furan-3-yl)ethyl]phenyl]-3-(2-methyl-6-morpholin-4-ylpyrimidin-4-yl)oxybenzonitrile]"
20,10 to 1000,"Cc1nc(Oc2cc(C#N)ccc2-c2ccc(CCN)nc2)cc(N2CCOCC2)n1 [Compound 74, 4-[6-(2-aminoethyl)pyridin-3-yl]-3-(2-methyl-6-morpholin-4-ylpyrimidin-4-yl)oxybenzonitrile]"
21,10 to 1000,"Cc1nc(Oc2cc(C#N)ccc2-c2ccc(CCN)nc2)cc(-c2ccccc2)n1 [Compound 75, 4-[6-(2-aminoethyl)pyridin-3-yl]-3-(2-methyl-6-phenylpyrimidin-4-yl)oxybenzonitrile]"
22,> 1000,"N#Cc1ccc(-c2ccc(CCN)nc2)c(Oc2cnnc(Cl)c2)c1 [Compound 76, 4-[6-(2-aminoethyl)pyridin-3-yl]-3-(6-chloropyridazin-4-yl)oxybenzonitrile]"
23,> 1000,"N#Cc1ccc(-c2ccc(CCN)nc2)c(Oc2cnnc(N3CCOCC3)c2)c1 [Compound 77, 4-[6-(2-aminoethyl)pyridin-3-yl]-3-(6-morpholin-4-ylpyridazin-4-yl)oxybenzonitrile]"
24,10 to 1000,"N#Cc1ccc(-c2ccc(CCN)nc2)c(Oc2cnnc(N3CCCCC3)c2)c1 [Compound 78, 4-[6-(2-aminoethyl)pyridin-3-yl]-3-(6-piperidin-1-ylpyridazin-4-yl)oxybenzonitrile]"
25,> 1000,"N#Cc1ccc(-c2ccc(CCN)nc2)c(Oc2cc(Cl)cnn2)c1 [Compound 79, 4-[6-(2-aminoethyl)pyridin-3-yl]-3-(5-chloropyridazin-3-yl)oxybenzonitrile]"
26,> 1000,"N#Cc1ccc(-c2ccc(CCN)nc2)c(Oc2cc(N3CCOCC3)cnn2)c1 [Compound 80, 4-[6-(2-aminoethyl)pyridin-3-yl]-3-(5-morpholin-4-ylpyridazin-3-yl)oxybenzonitrile]"
27,> 1000,"N#Cc1ccc(-c2ccc(CCN)nc2)c(Oc2cc(N3CCCCC3)cnn2)c1 [Compound 81, 4-[6-(2-aminoethyl)pyridin-3-yl]-3-(5-piperidin-1-ylpyridazin-3-yl)oxybenzonitrile]"
28,< 10,"N#Cc1ccc(-c2ccc(C(O)CN)cc2)c(Oc2cnnc(-c3ccccc3)c2)c1 (centres unmarked) [Compound 82, 4-[4-(2-amino-1-hydroxyethyl)phenyl]-3-(6-phenylpyridazin-4-yl)oxybenzonitrile]"
29,> 1000,"N#Cc1ccc(-c2ccc(C3(CN)CC3)cc2)c(Oc2cnnc(-c3ccccc3)c2)c1 [Compound 83, 4-[4-[1-(aminomethyl)cyclopropyl]phenyl]-3-(6-phenylpyridazin-4-yl)oxybenzonitrile]"
